According to PubChem BioAssay (NCI):
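Following 48 hours of exposure in 96-well plates, responses at five concentrations were used to interpolate endpoints linearly. The concentration for full growth arrest is given as TGI.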

Columns and labels:
Assay in all cases: DTP human tumour cell line panel, 48 h
OVCAR-8 ovarian = test system: OVCAR-8 ovarian
A549 NSCLC = test system: A549 NSCLC
MCF7 breast = test system: MCF7 breast
SNB-19 CNS = test system: SNB-19 CNS
HS 578T breast = test system: HS 578T breast
HL-60(TB) leukemia = test system: HL-60(TB) leukemia
SF-539 CNS = test system: SF-539 CNS
T-47D breast = test system: T-47D breast
SN12C renal = test system: SN12C renal
PC-3 prostate = test system: PC-3 prostate
RPMI-8226 leukemia = test system: RPMI-8226 leukemia
UACC-257 melanoma = test system: UACC-257 melanoma
COLO 205 colon = test system: COLO 205 colon
M14 melanoma = test system: M14 melanoma
SK-OV-3 ovarian = test system: SK-OV-3 ovarian
OVCAR-3 ovarian = test system: OVCAR-3 ovarian
HOP-92 NSCLC = test system: HOP-92 NSCLC
SR leukemia = test system: SR leukemia
NCI/ADR-RES ovarian = test system: NCI/ADR-RES ovarian
786-0 renal = test system: 786-0 renal
LOX IMVI melanoma = test system: LOX IMVI melanoma
DU-145 prostate = test system: DU-145 prostate
A498 renal = test system: A498 renal
NCI-H460 lung = test system: NCI-H460 lung
ACHN renal = test system: ACHN renal
NCI-H23 lung = test system: NCI-H23 lung
SK-MEL-28 melanoma = test system: SK-MEL-28 melanoma
MDA-MB-231 breast = test system: MDA-MB-231 breast
SW-620 colon = test system: SW-620 colon
OVCAR-4 ovarian = test system: OVCAR-4 ovarian
SF-295 CNS = test system: SF-295 CNS
CAKI-1 renal = test system: CAKI-1 renal
EKVX NSCLC = test system: EKVX NSCLC
HOP-62 NSCLC = test system: HOP-62 NSCLC
UACC-62 melanoma = test system: UACC-62 melanoma
IGROV1 ovarian = test system: IGROV1 ovarian
HT29 colon = test system: HT29 colon
NCI-H522 lung = test system: NCI-H522 lung
KM12 colon = test system: KM12 colon
TK-10 renal = test system: TK-10 renal
SK-MEL-5 melanoma = test system: SK-MEL-5 melanoma
U251 CNS = test system: U251 CNS
BT-549 breast = test system: BT-549 breast
MDA-MB-435 = test system: MDA-MB-435
OVCAR-5 ovarian = test system: OVCAR-5 ovarian
MDA-N = test system: MDA-N
SK-MEL-2 melanoma = test system: SK-MEL-2 melanoma
HCT-15 colon = test system: HCT-15 colon
HCT-116 colon = test system: HCT-116 colon
MALME-3M melanoma = test system: MALME-3M melanoma
MOLT-4 leukemia = test system: MOLT-4 leukemia
SF-268 CNS = test system: SF-268 CNS
NCI-H226 lung = test system: NCI-H226 lung
K-562 leukemia = test system: K-562 leukemia
UO-31 renal = test system: UO-31 renal
HCC-2998 colon = test system: HCC-2998 colon
RXF 393 renal = test system: RXF 393 renal
SNB-75 CNS = test system: SNB-75 CNS
CCRF-CEM leukemia = test system: CCRF-CEM leukemia

In the case of `N#CC(C#N)=CNCCN1CCN(C=C(C#N)C#N)CC1`, the TGI (OVCAR-8 ovarian) is reported as greater than 100 µM, the TGI (A549 NSCLC) is reported as greater than 100 µM and the TGI (MCF7 breast) is reported as greater than 100 µM. For the same molecule, the TGI (SNB-19 CNS) was greater than 100 µM, the TGI (HS 578T breast) was greater than 100 µM and the TGI (HL-60(TB) leukemia) was greater than 100 µM. It also gave a TGI (SF-539 CNS) greater than 100 µM, a TGI (T-47D breast) greater than 100 µM and a TGI (SN12C renal) greater than 100 µM. The TGI (PC-3 prostate) was greater than 100 µM, the TGI (RPMI-8226 leukemia) was greater than 100 µM and the TGI (UACC-257 melanoma) was greater than 100 µM. The TGI (COLO 205 colon) was greater than 100 µM, the TGI (M14 melanoma) was greater than 100 µM and the TGI (SK-OV-3 ovarian) was greater than 100 µM. For the same molecule, the TGI (OVCAR-3 ovarian) was greater than 100 µM, the TGI (HOP-92 NSCLC) was greater than 100 µM and the TGI (SR leukemia) was greater than 100 µM. It also gave a TGI (NCI/ADR-RES ovarian) greater than 100 µM, a TGI (786-0 renal) greater than 100 µM and a TGI (LOX IMVI melanoma) greater than 100 µM. It also gave a TGI (DU-145 prostate) greater than 100 µM, a TGI (A498 renal) greater than 100 µM and a TGI (NCI-H460 lung) greater than 100 µM. For the same molecule, the TGI (ACHN renal) was greater than 100 µM, the TGI (NCI-H23 lung) was greater than 100 µM and the TGI (SK-MEL-28 melanoma) was greater than 100 µM. It also gave a TGI (MDA-MB-231 breast) greater than 100 µM, a TGI (SW-620 colon) greater than 100 µM and a TGI (OVCAR-4 ovarian) greater than 100 µM. The TGI (SF-295 CNS) was greater than 100 µM, the TGI (CAKI-1 renal) was greater than 100 µM and the TGI (EKVX NSCLC) was greater than 100 µM. For the same molecule, the TGI (HOP-62 NSCLC) was greater than 100 µM, the TGI (UACC-62 melanoma) was greater than 100 µM and the TGI (IGROV1 ovarian) was greater than 100 µM. For the same molecule, the TGI (HT29 colon) was greater than 100 µM, the TGI (NCI-H522 lung) was greater than 100 µM and the TGI (KM12 colon) was greater than 100 µM. The TGI (TK-10 renal) was greater than 100 µM, the TGI (SK-MEL-5 melanoma) was greater than 100 µM and the TGI (U251 CNS) was greater than 100 µM. For the same molecule, the TGI (BT-549 breast) was greater than 100 µM, the TGI (MDA-MB-435) was greater than 100 µM and the TGI (OVCAR-5 ovarian) was greater than 100 µM. It also gave a TGI (MDA-N) greater than 100 µM, a TGI (SK-MEL-2 melanoma) greater than 100 µM and a TGI (HCT-15 colon) greater than 100 µM. The TGI (HCT-116 colon) was greater than 100 µM, the TGI (MALME-3M melanoma) was greater than 100 µM and the TGI (MOLT-4 leukemia) was greater than 100 µM. The TGI (SF-268 CNS) was greater than 100 µM, the TGI (NCI-H226 lung) was greater than 100 µM and the TGI (K-562 leukemia) was greater than 100 µM. For the same molecule, the TGI (UO-31 renal) was greater than 100 µM.

`Cc1cc2c(c(C(=O)NCC(=O)N[C@@H](C)C(=O)OCc3ccccc3)c1)Oc1c(cc(C)cc1C(=O)NCC(=O)N[C@@H](C)C(=O)OCc1ccccc1)S2` gave a TGI (HCC-2998 colon) greater than 100 µM, a TGI (OVCAR-8 ovarian) greater than 100 µM and a TGI (A549 NSCLC) greater than 100 µM. It also gave a TGI (MCF7 breast) greater than 100 µM, a TGI (SNB-19 CNS) greater than 100 µM and a TGI (HS 578T breast) of 80.1 µM. For the same molecule, the TGI (T-47D breast) was 6.28 µM, the TGI (SN12C renal) was greater than 100 µM and the TGI (PC-3 prostate) was greater than 100 µM. It also gave a TGI (RPMI-8226 leukemia) greater than 100 µM, a TGI (UACC-257 melanoma) greater than 100 µM and a TGI (COLO 205 colon) greater than 100 µM. For the same molecule, the TGI (M14 melanoma) was greater than 100 µM, the TGI (SK-OV-3 ovarian) was greater than 100 µM and the TGI (OVCAR-3 ovarian) was greater than 100 µM. For the same molecule, the TGI (SR leukemia) was greater than 100 µM, the TGI (NCI/ADR-RES ovarian) was greater than 100 µM and the TGI (786-0 renal) was greater than 100 µM. The TGI (DU-145 prostate) was greater than 100 µM, the TGI (RXF 393 renal) was 85.3 µM and the TGI (A498 renal) was greater than 100 µM. The TGI (NCI-H460 lung) was greater than 100 µM, the TGI (ACHN renal) was greater than 100 µM and the TGI (NCI-H23 lung) was greater than 100 µM. For the same molecule, the TGI (MDA-MB-231 breast) was greater than 100 µM, the TGI (SW-620 colon) was greater than 100 µM and the TGI (OVCAR-4 ovarian) was greater than 100 µM. For the same molecule, the TGI (SF-295 CNS) was greater than 100 µM, the TGI (CAKI-1 renal) was greater than 100 µM and the TGI (EKVX NSCLC) was greater than 100 µM. It also gave a TGI (HOP-62 NSCLC) greater than 100 µM, a TGI (UACC-62 melanoma) greater than 100 µM and a TGI (IGROV1 ovarian) greater than 100 µM. The TGI (HT29 colon) was greater than 100 µM, the TGI (KM12 colon) was greater than 100 µM and the TGI (SNB-75 CNS) was 46.1 µM. It also gave a TGI (SK-MEL-5 melanoma) greater than 100 µM, a TGI (U251 CNS) greater than 100 µM and a TGI (BT-549 breast) greater than 100 µM. The TGI (MDA-MB-435) was greater than 100 µM, the TGI (OVCAR-5 ovarian) was greater than 100 µM and the TGI (MDA-N) was greater than 100 µM. For the same molecule, the TGI (CCRF-CEM leukemia) was greater than 100 µM, the TGI (SK-MEL-2 melanoma) was greater than 100 µM and the TGI (HCT-15 colon) was greater than 100 µM. The TGI (HCT-116 colon) was greater than 100 µM, the TGI (MALME-3M melanoma) was 44.2 µM and the TGI (MOLT-4 leukemia) was greater than 100 µM. It also gave a TGI (SF-268 CNS) greater than 100 µM, a TGI (NCI-H226 lung) greater than 100 µM and a TGI (K-562 leukemia) greater than 100 µM. It also gave a TGI (UO-31 renal) greater than 100 µM.
